Assay results: patent US20090304692A1, “TRIAZINE COMPOUNDS AS PI3 KINASE AND MTOR INHIBITORS” (Wyeth, priority 2008, published 2009)
pIC50: −log10 of the molar value. Like-named read-outs stand apart in the source and are kept apart here.

Assays:
PI3K-α = PI3K-α (Homo sapiens, UniProt P42336); assay: PI3K-alpha fluorescence polarization assay
Human mTOR (FLAG-TOR) = Human mTOR (FLAG-TOR) (Homo sapiens, UniProt P42345); assay: mTOR kinase assay (DELFIA format, purified enzyme); format: biochemical; conditions: read-out: IC50 mTOR
PI3K-γ = PI3K-γ (Homo sapiens, UniProt P48736); assay: PI3K-gamma fluorescence polarization assay
[1] = test system: human prostate LNCap tumor cell line; assay: In vitro cell culture growth assay (MTS), LNCap; conditions: read-out: IC50 LNCap
[2] = MTS cell growth assay, three days after drug treatment

Human mTOR (FLAG-TOR), sequence (P42345 1360-2549 limits assumed): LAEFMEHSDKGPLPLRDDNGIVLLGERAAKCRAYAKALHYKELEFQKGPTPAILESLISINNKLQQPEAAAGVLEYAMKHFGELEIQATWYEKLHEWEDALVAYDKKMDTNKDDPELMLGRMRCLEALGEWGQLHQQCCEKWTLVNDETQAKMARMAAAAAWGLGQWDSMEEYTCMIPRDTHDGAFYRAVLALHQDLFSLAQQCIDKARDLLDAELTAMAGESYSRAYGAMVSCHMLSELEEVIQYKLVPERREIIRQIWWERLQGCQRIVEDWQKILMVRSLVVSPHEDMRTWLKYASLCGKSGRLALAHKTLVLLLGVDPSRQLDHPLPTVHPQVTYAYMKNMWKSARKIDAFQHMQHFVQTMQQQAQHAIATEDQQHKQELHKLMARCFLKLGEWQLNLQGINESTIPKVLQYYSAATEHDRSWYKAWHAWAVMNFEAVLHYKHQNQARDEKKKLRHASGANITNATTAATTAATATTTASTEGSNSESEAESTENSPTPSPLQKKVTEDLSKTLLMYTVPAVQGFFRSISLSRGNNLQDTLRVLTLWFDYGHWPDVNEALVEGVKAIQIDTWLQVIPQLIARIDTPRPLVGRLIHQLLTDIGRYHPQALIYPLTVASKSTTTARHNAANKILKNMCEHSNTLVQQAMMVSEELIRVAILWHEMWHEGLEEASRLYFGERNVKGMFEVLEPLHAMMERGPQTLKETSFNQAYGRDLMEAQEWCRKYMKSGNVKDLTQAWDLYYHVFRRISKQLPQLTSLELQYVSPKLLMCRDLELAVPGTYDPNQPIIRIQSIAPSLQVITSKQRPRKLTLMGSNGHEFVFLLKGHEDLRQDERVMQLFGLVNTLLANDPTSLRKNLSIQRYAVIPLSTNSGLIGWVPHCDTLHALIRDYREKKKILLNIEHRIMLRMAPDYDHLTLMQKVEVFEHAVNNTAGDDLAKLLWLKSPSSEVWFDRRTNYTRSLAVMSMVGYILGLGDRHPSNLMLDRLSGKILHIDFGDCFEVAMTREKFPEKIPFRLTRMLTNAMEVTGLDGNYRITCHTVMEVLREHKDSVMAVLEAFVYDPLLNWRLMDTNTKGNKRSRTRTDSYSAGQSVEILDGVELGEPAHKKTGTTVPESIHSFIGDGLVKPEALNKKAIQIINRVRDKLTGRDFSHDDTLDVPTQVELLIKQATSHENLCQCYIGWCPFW
PI3K-γ, sequence (P48736 whole entry, species assumed): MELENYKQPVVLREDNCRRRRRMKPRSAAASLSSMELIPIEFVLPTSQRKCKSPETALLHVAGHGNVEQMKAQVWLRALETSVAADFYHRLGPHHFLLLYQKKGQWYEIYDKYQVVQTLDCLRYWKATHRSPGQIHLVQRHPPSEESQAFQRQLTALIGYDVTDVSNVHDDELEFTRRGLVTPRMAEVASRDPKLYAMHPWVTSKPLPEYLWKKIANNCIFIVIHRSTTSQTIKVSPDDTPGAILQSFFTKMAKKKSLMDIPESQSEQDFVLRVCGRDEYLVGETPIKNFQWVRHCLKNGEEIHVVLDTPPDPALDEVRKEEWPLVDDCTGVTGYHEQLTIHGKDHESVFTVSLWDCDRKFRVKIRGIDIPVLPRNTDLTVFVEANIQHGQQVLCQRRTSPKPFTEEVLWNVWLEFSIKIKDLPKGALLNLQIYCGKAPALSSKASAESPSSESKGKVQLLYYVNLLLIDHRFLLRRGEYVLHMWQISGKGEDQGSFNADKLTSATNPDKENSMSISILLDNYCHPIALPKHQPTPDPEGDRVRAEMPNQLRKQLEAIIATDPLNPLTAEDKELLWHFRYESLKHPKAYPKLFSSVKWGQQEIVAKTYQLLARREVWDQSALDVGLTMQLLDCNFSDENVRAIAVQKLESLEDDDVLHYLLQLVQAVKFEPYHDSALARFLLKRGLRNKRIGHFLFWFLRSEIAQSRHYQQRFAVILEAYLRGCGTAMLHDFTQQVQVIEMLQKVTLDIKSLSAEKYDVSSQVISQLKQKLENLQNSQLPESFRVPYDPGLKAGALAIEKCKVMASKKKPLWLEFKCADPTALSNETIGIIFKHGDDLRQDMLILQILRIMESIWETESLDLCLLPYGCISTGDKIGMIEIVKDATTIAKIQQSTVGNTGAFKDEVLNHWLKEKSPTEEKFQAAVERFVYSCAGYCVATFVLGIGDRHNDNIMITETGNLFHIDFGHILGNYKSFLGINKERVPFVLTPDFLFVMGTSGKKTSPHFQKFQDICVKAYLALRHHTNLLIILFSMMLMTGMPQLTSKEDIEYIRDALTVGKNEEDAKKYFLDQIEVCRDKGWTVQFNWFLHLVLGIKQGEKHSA
PI3K-α, sequence (P42336 whole entry, species assumed): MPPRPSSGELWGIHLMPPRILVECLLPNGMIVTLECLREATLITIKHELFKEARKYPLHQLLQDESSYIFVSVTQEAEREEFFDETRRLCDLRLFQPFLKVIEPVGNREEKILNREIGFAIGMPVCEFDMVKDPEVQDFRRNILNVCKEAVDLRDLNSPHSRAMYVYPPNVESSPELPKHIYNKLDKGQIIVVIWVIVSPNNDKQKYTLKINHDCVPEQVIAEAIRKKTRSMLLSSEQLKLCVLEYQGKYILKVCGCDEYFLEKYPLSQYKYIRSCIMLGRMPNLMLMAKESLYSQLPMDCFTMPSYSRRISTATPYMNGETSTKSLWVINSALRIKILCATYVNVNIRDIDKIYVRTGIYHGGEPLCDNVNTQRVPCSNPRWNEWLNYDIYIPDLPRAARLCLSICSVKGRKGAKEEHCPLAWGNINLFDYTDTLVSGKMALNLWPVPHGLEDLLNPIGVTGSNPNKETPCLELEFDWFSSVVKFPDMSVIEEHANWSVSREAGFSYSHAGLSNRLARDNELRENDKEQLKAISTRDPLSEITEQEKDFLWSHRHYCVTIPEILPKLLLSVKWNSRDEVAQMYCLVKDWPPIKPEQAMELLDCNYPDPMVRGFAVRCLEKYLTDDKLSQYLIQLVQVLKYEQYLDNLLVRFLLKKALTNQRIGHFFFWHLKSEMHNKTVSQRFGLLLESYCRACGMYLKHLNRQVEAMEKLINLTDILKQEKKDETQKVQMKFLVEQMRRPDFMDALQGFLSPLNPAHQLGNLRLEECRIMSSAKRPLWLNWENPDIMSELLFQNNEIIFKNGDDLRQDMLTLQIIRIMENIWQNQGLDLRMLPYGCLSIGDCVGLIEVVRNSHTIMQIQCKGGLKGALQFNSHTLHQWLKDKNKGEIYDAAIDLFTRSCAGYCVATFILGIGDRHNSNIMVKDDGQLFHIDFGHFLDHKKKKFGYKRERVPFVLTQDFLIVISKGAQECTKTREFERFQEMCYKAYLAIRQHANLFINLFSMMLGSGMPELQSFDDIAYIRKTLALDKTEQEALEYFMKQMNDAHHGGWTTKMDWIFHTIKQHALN
PI3K-α, sequence (P27986 whole entry partner, species assumed): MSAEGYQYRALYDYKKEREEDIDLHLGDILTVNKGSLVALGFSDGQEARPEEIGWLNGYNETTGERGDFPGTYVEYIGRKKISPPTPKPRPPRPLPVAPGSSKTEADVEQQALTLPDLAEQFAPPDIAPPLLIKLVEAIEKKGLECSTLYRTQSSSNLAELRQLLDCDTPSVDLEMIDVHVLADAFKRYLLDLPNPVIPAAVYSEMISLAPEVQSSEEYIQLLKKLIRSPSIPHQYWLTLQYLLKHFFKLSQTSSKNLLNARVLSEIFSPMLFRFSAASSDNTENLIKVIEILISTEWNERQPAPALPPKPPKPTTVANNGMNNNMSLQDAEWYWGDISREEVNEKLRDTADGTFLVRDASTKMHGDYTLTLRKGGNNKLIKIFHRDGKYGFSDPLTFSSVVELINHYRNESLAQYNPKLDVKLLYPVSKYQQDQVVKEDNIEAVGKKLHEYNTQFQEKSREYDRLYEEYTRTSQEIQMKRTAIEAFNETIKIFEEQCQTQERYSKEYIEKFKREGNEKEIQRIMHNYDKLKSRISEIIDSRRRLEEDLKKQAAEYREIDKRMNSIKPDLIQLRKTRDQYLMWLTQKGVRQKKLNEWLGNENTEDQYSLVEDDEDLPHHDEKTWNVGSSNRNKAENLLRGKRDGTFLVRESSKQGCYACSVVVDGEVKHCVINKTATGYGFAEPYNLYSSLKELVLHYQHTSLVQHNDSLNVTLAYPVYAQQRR

pIC50 (PI3K-α; read-out: IC50 PI3Kα)	pIC50 (Human mTOR (FLAG-TOR))	pIC50 ([1]; Homo sapiens, LNCaP, 72 h)	pIC50 (PI3K-γ)	pIC50 (PI3K-α)	Molecule	pIC50 (PI3K-γ; read-out: IC50 PI3Kγ)	pIC50 [1, 2]	pIC50 ([1]; MTS cell growth assay, three days after drug treatment, LNCap cells)
6.36	8.10	5.02			CN1CCCN(c2nc(-c3ccc(NC(=O)Nc4cccnc4)cc3)nc(N3CC4CCC(C3)O4)n2)C1 [Example 172, 1-{4-[4-(3-methyltetrahydropyrimidin-1(2H)-yl)-6-(8-oxa-3-azabicyclo[3.2.1]oct-3-yl)-1,3,5-triazin-2-yl]phenyl}-3-pyridin-3-ylurea]			
5.92	7.08	5.60			O=C(Nc1ccc(-c2nc(OCCN3CCCCC3)nc(N3CC4CCC(C3)O4)n2)cc1)Nc1cccnc1 [Example 173, 1-{4-[4-(8-oxa-3-azabicyclo[3.2.1]oct-3-yl)-6-(2-piperidin-1-ylethoxy)-1,3,5-triazin-2-yl]phenyl}-3-pyridin-3-ylurea]			
	7.25	5.29			O=C(Nc1ccc(-c2nc(N3CC4CCC(C3)O4)nc(N3C[C@@H]4C[C@H]3CN4)n2)cc1)Nc1cccnc1 [Example 206, 1-(4-{4-[(1S,4S)-2,5-diazabicyclo[2.2.1]hept-2-yl]-6-(8-oxa-3-azabicyclo[3.2.1]oct-3-yl)-1,3,5-triazin-2-yl}phenyl)-3-pyridin-3-ylurea]			
	9.08	7.48			CN1CCN(c2ccc(Nc3nc(-c4ccc(NC(=O)Nc5cccnc5)cc4)nc(N4CC5CCC(C4)O5)n3)cc2)CC1 [Example 207, 1-{4-[4-{[4-(4-methylpiperazin-1-yl)phenyl]amino}-6-(8-oxa-3-azabicyclo[3.2.1]oct-3-yl)-1,3,5-triazin-2-yl]phenyl}-3-pyridin-3-ylurea]			
	9.30	7.30			O=C(Nc1ccc(-c2nc(Nc3ccc(N4CCNCC4)cc3)nc(N3CC4CCC(C3)O4)n2)cc1)Nc1cccnc1 [Example 208, 1-(4-{4-(8-oxa-3-azabicyclo[3.2.1]oct-3-yl)-6-[(4-piperazin-1-ylphenyl)amino]-1,3,5-triazin-2-yl}phenyl)-3-pyridin-3-ylurea]			
5.28	8.02	6.38			CC(C)Nc1nc(-c2ccc(NC(=O)NC3CC3)cc2)nc(N2CC3CCC(C2)O3)n1 [Example 213, 1-cyclopropyl-3-(4-{4-[(1-methylethyl)amino]-6-(8-oxa-3-azabicyclo[3.2.1]oct-3-yl)-1,3,5-triazin-2-yl}phenyl)urea]			
5.57	8.54	6.15			CC(C)Nc1nc(-c2ccc(NC(=O)NCCO)cc2)nc(N2CC3CCC(C2)O3)n1 [Example 214, 1-(2-hydroxyethyl)-3-(4-{4-[(1-methylethyl)amino]-6-(8-oxa-3-azabicyclo[3.2.1]oct-3-yl)-1,3,5-triazin-2-yl}phenyl)urea]			
	> 9.00	6.77			CNC(=O)Nc1ccc(-c2nc(-c3ccc(NC(=O)Nc4cccnc4)cc3)nc(N3CCOCC3)n2)cc1 [Example 467, 1-methyl-3-[4-(4-morpholin-4-yl-6-{4-[(pyridin-3-ylcarbamoyl)amino]phenyl}-1,3,5-triazin-2-yl)phenyl]urea]			
	> 9.00	7.30			CNC(=O)Nc1ccc(-c2nc(-c3ccc(NC(=O)Nc4ccncc4)cc3)nc(N3CCOCC3)n2)cc1 [Example 468, 1-methyl-3-[4-(4-morpholin-4-yl-6-{4-[(pyridin-4-ylcarbamoyl)amino]phenyl}-1,3,5-triazin-2-yl)phenyl]urea]			

The next lines start with the molecule.

Molecule	pIC50 (PI3K-α; read-out: IC50 PI3Kα)	pIC50 (Human mTOR (FLAG-TOR))	pIC50 ([1]; Homo sapiens, LNCaP, 72 h)	pIC50 (PI3K-γ)	pIC50 (PI3K-α)	pIC50 (PI3K-γ; read-out: IC50 PI3Kγ)	pIC50 [1, 2]	pIC50 ([1]; MTS cell growth assay, three days after drug treatment, LNCap cells)
1-(4-(4-(3-oxa-8-azabicyclo[3.2.1]octan-8-yl)-6-(piperidin-4-ylamino)-1,3,5-triazin-2-yl)phenyl)-3-ethylurea [Example 361]	5.22	8.89				< 5.00	8.66	
1-(4-(4-(3-oxa-8-azabicyclo[3.2.1]octan-8-yl)-6-(piperidin-4-ylamino)-1,3,5-triazin-2-yl)phenyl)-3-ethylurea [Example 362]	5.51	9.13				< 5.00	9.00	
1-(4-(4-(3-oxa-8-azabicyclo[3.2.1]octan-8-yl)-6-(piperidin-4-ylamino)-1,3,5-triazin-2-yl)phenyl)-3-ethylurea [Example 364]	5.83	8.46				5.09	7.15	
1-{4-[4-(4-morpholin-4-ylpiperidin-1-yl)-6-(8-oxa-3-azabicyclo[3.2.1]oct-3-yl)-1,3,5-triazin-2-yl]phenyl}-3-pyridin-4-ylurea [Example 121]	5.73	7.36				5.40	6.00	
CNC(=O)Nc1ccc(-c2nc(N3CC4CCC(C3)O4)nc(N3CC4CCC(C3)O4)n2)cc1 [Example 26, 1-[4-(4,6-di-8-oxa-3-azabicyclo[3.2.1]oct-3-yl-1,3,5-triazin-2-yl)phenyl]-3-methylurea]	6.17	8.60	6.72					
O=C(Nc1ccc(-c2nc(N3CC4CCC(C3)O4)nc(N3CC4CCC(C3)O4)n2)cc1)OCCO [Example 27, 2-hydroxyethyl[4-(4,6-di-8-oxa-3-azabicyclo[3.2.1]oct-3-yl-1,3,5-triazin-2-yl)phenyl]carbamate]	5.91	8.38	6.46	< 5.00				
CN1CCN(c2ccc(NC(=O)Nc3ccc(-c4nc(N5CC6CCC(C5)O6)nc(N5CC6CCC(C5)O6)n4)cc3)cc2)CC1 [Example 28, 1-[4-(4,6-di-8-oxa-3-azabicyclo[3.2.1]oct-3-yl-1,3,5-triazin-2-yl)phenyl]-3-[4-(4-methylpiperazin-1-yl)phenyl]urea]	7.27	9.02	8.62			5.26		
CCNC(=O)Nc1ccc(-c2nc(N3CC4CCC(C3)O4)nc(N3CC4CCC(C3)O4)n2)cc1 [Example 29, 1-[4-(4,6-di-8-oxa-3-azabicyclo[3.2.1]oct-3-yl-1,3,5-triazin-2-yl)phenyl]-3-ethylurea]	5.57	8.55	6.74	< 5.00				
O=C(Nc1ccc(-c2nc(N3CC4CCC(C3)O4)nc(N3CC4CCC(C3)O4)n2)cc1)NC1CC1 [Example 30, 1-cyclopropyl-3-[4-(4,6-di-8-oxa-3-azabicyclo[3.2.1]oct-3-yl-1,3,5-triazin-2-yl)phenyl]urea]	5.67	8.58	7.05	< 5.00				
O=C(Nc1ccncc1)Nc1ccc(-c2nc(N3CC4CCC(C3)O4)nc(N3CC4CCC(C3)O4)n2)cc1 [Example 31, 1-[4-(4,6-di-8-oxa-3-azabicyclo[3.2.1]oct-3-yl-1,3,5-triazin-2-yl)phenyl]-3-pyridin-4-ylurea]	6.85	9.31	7.35			5.45		
O=C(Nc1ccc(CO)cc1)Nc1ccc(-c2nc(N3CC4CCC(C3)O4)nc(N3CC4CCC(C3)O4)n2)cc1 [Example 32, 1-[4-(4,6-di-8-oxa-3-azabicyclo[3.2.1]oct-3-yl-1,3,5-triazin-2-yl)phenyl]-3-[4-(hydroxymethyl)phenyl]urea]	7.35	9.54	9.15			5.60		
O=C(O)CNC1CCN(c2nc(-c3ccc(NC(=O)Nc4ccncc4)cc3)nc(N3CC4CCC(C3)O4)n2)CC1 [Example 128, 2-(1-(4-(8-oxa-3-azabicyclo[3.2.1]octan-3-yl)-6-(4-(3-pyridin-4-ylureido)phenyl)-1,3,5-triazin-2-yl)piperidin-4-ylamino)acetic acid]	5.88	7.51	4.52					
CN1CCN(c2ccc(NC(=O)Nc3ccc(-c4nc(-c5ccc(NC(=O)NC6CC6)cc5)nc(N5CC6CCC(C5)O6)n4)cc3)cc2)CC1 [Example 146, 1-cyclopropyl-3-(4-{4-[4-({[4-(4-methylpiperazin-1-yl)phenyl]carbamoyl}amino)phenyl]-6-(8-oxa-3-azabicyclo[3.2.1]oct-3-yl)-1,3,5-triazin-2-yl}phenyl)urea]		8.52	8.30		< 5.00			
O=C(Nc1ccc(-c2nc(NCCO)nc(N3CC4CCC(C3)O4)n2)cc1)Nc1cccnc1 [Example 153, 1-(4-{4-[(2-hydroxyethyl)amino]-6-(8-oxa-3-azabicyclo[3.2.1]oct-3-yl)-1,3,5-triazin-2-yl}phenyl)-3-pyridin-3-ylurea]	6.06	7.82	5.38					
NCCCNc1nc(-c2ccc(NC(=O)Nc3cccnc3)cc2)nc(N2CC3CCC(C2)O3)n1 [Example 156, 1-(4-{4-[(3-aminopropyl)amino]-6-(8-oxa-3-azabicyclo[3.2.1]oct-3-yl)-1,3,5-triazin-2-yl}phenyl)-3-pyridin-3-ylurea]	6.13	7.28	4.66					
CN1CCN(c2ccc(NC(=O)Nc3ccc(-c4nc(N5CC6CCC(C5)O6)nc(N5C6CCC5COC6)n4)cc3)cc2)CC1 [Example 303, 1-[4-(4-methylpiperazin-1-yl)phenyl]-3-{4-[4-(3-oxa-8-azabicyclo[3.2.1]oct-8-yl)-6-(8-oxa-3-azabicyclo[3.2.1]oct-3-yl)-1,3,5-triazin-2-yl]phenyl}urea]		7.77	9.10					
CN(C)CCOc1ccc(NC(=O)Nc2ccc(-c3nc(N4CCSCC4)nc(N4C5CCC4COC5)n3)cc2)cc1 [Example 365, 1-(4-(4-(3-oxa-8-azabicyclo[3.2.1]octan-8-yl)-6-thiomorpholino-1,3,5-triazin-2-yl)phenyl)-3-(4-(2-(dimethylamino)ethoxy)phenyl)urea]		8.00	6.55					
CNC(=O)Nc1ccc(-c2nc(-c3ccc(NC(=O)Nc4cccc(C(N)=O)c4)cc3)nc(N3CCOCC3)n2)cc1 [Example 466, 3-({[4-(4-{4-[(methylcarbamoyl)amino]phenyl}-6-morpholin-4-yl-1,3,5-triazin-2-yl)phenyl]carbamoyl}amino) benzamide]		9.00						6.38
